US20260216179A1, “1,5-NAPHTHYRIDINE DERIVATIVES AS KRAS ONCOPROTEIN INHIBITORS” (Beta Pharma, Inc., priority 2022, published 2026)
pIC50: −log10 of the molar value. Where two headings read alike, the source gives them in different places. Blank lines part the entries; values can stand above or below the compound they belong to.

Experiments:
[1] = molecular target: T1, KRAS G12C (Homo sapiens, UniProt P01116, G12C); test: KRAS G12C/SOS1 nucleotide exchange assay (Bodipy-GDP to GTP exchange); type: biochemical; set-up: KRAS G12C or KRAS G12D (aa 2-169, expressed in E. coli); His-tag (TEV cleavable) (N); purchased Reaction Biology Corporation (RBC), which ran the assay MSC-11-502 (SOS1 only; none given for KRAS); host or cells: E. coli; conditions: SOS1-mediated Bodipy-GDP/KRAS G12C exchange; dRFU analysis method for covalent inhibitors; 30 min pre-incubation at RT; 0.5% DMSO
Protocol: (§1) The biological activity of the Examples was determined in a KRAS
(§2) The assay evaluates the SOS1-mediated Bodipy-GDP to GTP exchange observed with KRAS G12C and KRAS G12D.
(§3) Reaction Buffer: 40 mM HEPES 7.4, 10 mM MgCl2, 1 mM DTT 0.002% Triton X100, 0.5% DMSO.
(§4) • 1. Deliver 10 μL of 1.5× KRAS solution in freshly prepared reaction buffer to reaction wells. • 2. Deliver compounds in 100% DMSO into buffer using acoustic technology (Echo550; nanoliter range). • 3. Incubate compounds with KRAS for 30 minutes at room temperature. • 4. Prepare 3× (SOS1+GTP) solution in reaction buffer. • 5. Deliver 5 μL of SOS1+GTP solution into reactions wells (deliver GTP only to column 1 for no SOS1 control). • 6.
Data Analysis: The fluorescence data was normalized using the equation below and fitted to “one phase exponential decay” equation using GraphPad prism software. The plateau was fixed to zero (use for non-covalent inhibitors) and rate ×1000 was used to calculate the IC50 values.
(§5) where Yraw is defined as fluorescence at time t, Ao is the average initial fluorescence with no SOS1, and Mis the minimum fluorescence at the end of the reaction at the maximum SOS1.
The background subtracted signals (no SOS1 protein wells were used as background) were converted to % activity relative to DMSO controls. Data was analyzed using GraphPad Prism 4 with “sigmoidal dose-response (variable slope)”; 4 parameters with Hill Slope. The constraints were bottom (constant equal to 0) and top (must be less than 120).
Target sequence in this assay (P01116 2-169 G12C): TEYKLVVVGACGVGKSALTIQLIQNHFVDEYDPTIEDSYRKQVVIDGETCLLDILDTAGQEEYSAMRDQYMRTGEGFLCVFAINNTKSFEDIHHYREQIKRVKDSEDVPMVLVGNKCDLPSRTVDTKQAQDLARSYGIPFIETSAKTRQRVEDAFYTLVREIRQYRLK

[2] = PK profile in male CD1 mice; type: in vivo; conditions: for MRT inf: read-out: MRT0-inf; for MRT last: read-out: MRT0-last
Description: PK Profile in male CD1 mice:

[3] = molecular target: T1, KRAS G12C; test: NanoBRET target engagement cellular assay in transiently transfected HEK293 cells; type: cell-based; set-up: expressed in transfected cells; host or cells: HEK293, transiently transfected; conditions: RAS tracer K2 1 μM, 2 hours at 37° C.
Protocol: KRAS G12C cellular activity was determined in a target engagement cellular assay (NanoBRET™) in transiently transfected HEK293 cells by Reaction Biology Corporation (RBC), 1 Great Valley Parkway, Suite 2 Malvern, PA 19355, USA. HEK293 were cultivated to 70-80% confluence prior to the assay followed by trypsinizing and collection of the cells. BI-2852 was used as the KRAS G12C reference compound. Each test compound solution was delivered from a compound source plate to the wells of 384-well white non-binding surface plate by an Echo 550 prior to the assay.
A 10 μg/mL solution of DNA in Opti-MEM was prepared without serum that consisted of 1 μg LgBiT®-KRAS (G12C)-NanoLuc fusion vector, 1 μg SmBIT®-KRAS (G12C)-NanoLuc fusion vector and 8 μg transfection carrier DNA. This mixture was subsequently treated with 30 μL of FuGENE HD Transfection Reagent into each milliliter of DNA mixture to form a lipid: DNA complex. The resulting mixture was then gently mixed by inversion and incubated at ambient temperature for 20 minutes to allow complexes to form. A mixture of 1 part of lipid: DNA complex with 20 parts of suspended HEK293 cells was added to a sterile conical tube and mixed gently by inversion. The cells+lipid: DNA complex mixture was then added to a sterile tissue culture dish and incubated for 24 hours. The medium was removed from the dish via aspiration followed by trypsinizing and allowing the cells to dissociate from the tissue culture dish. The trypsin was subsequently neutralized by using medium containing serum and centrifugation at 200×g for 5 minutes to pellet the cells in the conical tube. The cell density was adjusted to 2×10^5 cells/mL in Opti-MEM without phenol red. One part of Complete 20× NanoBRET™ RAS Tracer Reagent was dispensed to 20 parts of cells in the conical tube and mixed gently by inversion. The resulting cell suspension was dispensed into a white, 384-well NBS plate containing the test compounds (starting at 10 μM, 10-dose with 3-fold dilution) at 37° C., 5% CO2 for 2 hours. The final concentration for RAS tracer K2 was 1 μM. […]
Freshly prepared substrate solution (3×) in the assay medium was added to each well of the 384-well NBS plate and incubated for 3 minutes at room temperature. The donor emission wavelength (460 nm) and acceptor emission wavelength (600 nm) were measured using an Envision 2104 plate reader. […] The BRET ratio was calculated using the following equation: BRET Ratio= [(Acceptor sample÷Donor sample)−(Acceptor no-tracer control[…]Donor no-tracer control)]. The normalized BRET response (%) was calculated by the following equation: (BRET ratio of test compound/BRET ratio of DMSO control)*100%. The IC50 curves were plotted and IC50 values were calculated with GraphPad Prism 4 based on a sigmoidal dose-response equation.
Target sequence in this assay (P01116 1-186 isoform P01116-2 G12C limits assumed): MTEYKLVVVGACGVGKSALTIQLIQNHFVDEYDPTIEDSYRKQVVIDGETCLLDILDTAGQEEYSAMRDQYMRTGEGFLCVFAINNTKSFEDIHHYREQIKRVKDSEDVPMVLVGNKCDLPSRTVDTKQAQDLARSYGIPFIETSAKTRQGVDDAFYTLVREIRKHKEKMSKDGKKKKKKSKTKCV
Target sequence in this assay (P01116 1-186 isoform P01116-2 G12C limits assumed): as above

[4] = test system: MIA PaCa-2 cells; test: CellTiter-Glo viability assay; type: cell-based; conditions: Homo sapiens, 72 hours, read-out: CTG Assay IC50 Values
Protocol: The reference compound staurosporine was purchased from Sigma-Aldrich (Saint Louis, MI). CellTiter-Glo® 2.0 Luminescent cell viability assay reagent was purchased from Promega (Madison, WI). MIA PaCa-2 cell line was purchased from American Type Culture Collection (Manassas, VA). MIA PaCa-2 cells were cultured in DMEM containing 10% FBS, 2.5% horse serum, 100 μg/ml of penicillin and 100 μg/ml of streptomycin. Cultures were maintained at 37° C. in a humidified atmosphere of 5% CO2 and 95% air.
Test compounds and reference compound, staurosporine, were diluted in DMSO solution with 10-dose and 3-fold dilution in a source plate starting at 10 mM. • 2. 25 nL of test compounds or 25 nL of staurosporine was delivered from the source plate to each well of the 384-well cell culture plate by Echo 550. • 3. 25 μL of culture media containing 2000 cells was added to each of the wells of the cell culture plate in duplicate. • 4. The cells were incubated with the compounds at 37° C., 5% CO2 for 72 hours. • 5. […] Luminescence was recorded by Envision 2104 Multilabel Reader (PerkinElmer, Santa Clara, CA). The number of viable cells in culture was determined based on quantitation of the ATP present in each culture well. • 8. The IC50 curves were plotted and IC50 values were calculated using the GraphPad Prism 4 program based on a sigmoidal dose-response equation

[5] = molecular target: T2, KRAS G12D (Homo sapiens, UniProt P01116, G12D); test: KRAS G12D/SOS1 nucleotide exchange assay (Bodipy-GDP to GTP exchange); type: biochemical; conditions: SOS1-mediated Bodipy-GDP/KRAS G12D exchange; rate constant method (plateau = 0) for reversible inhibitors; 30 min pre-incubation at RT; 0.5% DMSO
T2 construct: KRAS G12C or KRAS G12D (aa 2-169, expressed in E. coli); His-tag (TEV cleavable) (N); purchased Reaction Biology Corporation (RBC), which ran the assay MSC-11-502 (SOS1 only; none given for KRAS); host or cells: E. coli
Protocol: as §1, §2
The compound pre-incubation time was 30 min at RT and the curve fits were performed when the activities at the highest concentration of compounds were less than 65%.
as §3
as §4, with “Deliver 5 μL of SOS1+GTP solution into reactions wells (deliver GTP only to column 1 for no SOS1 control). • 6.” left out
Data Analysis: The fluorescence data was normalized using the equation below and fitted to “one phase exponential decay” equation using GraphPad prism software. […]
as §5
The background subtracted signals (no SOS1 protein wells were used as background) were converted to % activity relative to DMSO controls. Data was analyzed using GraphPad Prism 4 with “sigmoidal dose-response (variable slope)”; 4 parameters with Hill Slope. […]

[6] = 3 mg/kg, i.v., single dose, mean plasma
[7] = 30 mg/kg, p.o., single dose, mean plasma
[8] = mouse, iv, 3 mg/kg, i.v., single dose, mean plasma
[9] = mouse, iv, 3 mg/kg, single dose, mean plasma
[10] = mouse, po, 30 mg/kg, p.o., single dose, mean plasma
[11] = mouse, po, 30 mg/kg, single dose, mean plasma

T2 sequence (P01116 2-169 G12D): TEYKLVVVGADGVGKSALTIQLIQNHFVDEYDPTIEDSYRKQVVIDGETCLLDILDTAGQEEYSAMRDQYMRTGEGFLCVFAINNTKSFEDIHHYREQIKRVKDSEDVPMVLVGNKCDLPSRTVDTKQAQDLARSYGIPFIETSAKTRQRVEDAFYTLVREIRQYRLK

- pIC50 [1]: 7.19
SMILES: C=C(F)C(=O)N1CCN(c2cc(OC[C@@]34CCCN3C[C@H](F)C4)nc3cc(-c4cccc5cccc(Cl)c45)cnc23)C[C@@H]1CC#N [Example 8, 2-((S)-4-(7-(8-chloronaphthalen-1-yl)-2-(((2R,7aS)-2-fluorotetrahydro-1H-pyrrolizin-7a(5H)-yl)methoxy)-1,5-naphthyridin-4-yl)-1-(2-fluoroacryloyl)piperazin-2-yl)acetonitrile]

- pIC50 [1]: 7.51
SMILES: C=CC(=O)N1CCN(c2cc(OC[C@@]34CCCN3C[C@H](F)C4)nc3cc(-c4cccc5cccc(Cl)c45)cnc23)C[C@@H]1CC#N [Example 7, 2-((S)-1-acryloyl-4-(7-(8-chloronaphthalen-1-yl)-2-(((2R,7aS)-2-fluorotetrahydro-1H-pyrrolizin-7a(5H)-yl)methoxy)-1,5-naphthyridin-4-yl)piperazin-2-yl)acetonitrile]

- AUCExtra [2, 6]: 2.52%
- AUMCExtra [2, 6]: 14.3%
- Tlast [2, 6]: 8.00 h
- AUCExtra [2, 7]: 0.315%
- AUMCExtra [2, 7]: 1.85%
- Tlast [2, 7]: 24.0 h
- MRT inf [2, 8]: 1.77 h
- MRT last [2, 8]: 1.56 h
- Vd ([2]; mouse, iv, 3 mg/kg, i.v., single dose, mean plasma, read-out: Vdss): 7.7 L/kg
- AUC(0-inf) [2, 9]: 691 ng·h/mL
- AUC(0-t) [2, 9]: 673 ng·h/mL
- C0 [2, 9]: 800 ng/mL
- clearance [2, 9]: 72.4 mL/min/kg
- half-life [2, 9]: 1.42 h
- bioavailability ([2]; mouse, plasma, oral, 30 mg/kg, p.o., single dose vs 3 mg/kg i.v.): 21.7%
- MRT inf [2, 10]: 4.79 h
- MRT last [2, 10]: 4.72 h
- AUC(0-inf) [2, 11]: 1500 ng·h/mL
- AUC(0-t) [2, 11]: 1500 ng·h/mL
- Cmax [2, 11]: 249 ng/mL
- Tmax [2, 11]: 1 h
- half-life [2, 11]: 2.85 h
- pIC50 [1]: 7.42
- pIC50 [3]: > 9.30
- pIC50 [4]: 5.54
SMILES: C=CC(=O)N1CCN(c2cc(OCC34CCCN3CCC4)nc3cc(-c4cccc5cccc(Cl)c45)cnc23)C[C@@H]1CC#N [Example 5, (S)-2-(1-acryloyl-4-(7-(8-chloronaphthalen-1-yl)-2-((tetrahydro-1H-pyrrolizin-7a(5H)-yl)methoxy)-1,5-naphthyridin-4-yl)piperazin-2-yl)acetonitrile]

- pIC50 [3]: 6.49
SMILES: Cn1cnc(Cn2ccc3ccc(CNCc4[nH]c5ccccc5c4[C@H]4NC(=O)c5ccc(O)cc54)cc32)c1 [BI-2852, reference compound]

- pIC50 [5]: 5.82
SMILES: CC(=O)c1c(F)ccc2cc(O)cc(-c3cnc4c(N5C[C@H]6CC[C@@H](C5)N6)cc(OC[C@@]56CCCN5C[C@H](F)C6)nc4c3)c12 [Example 3, 1-(8-(8-((1R,5S)-3,8-Diazabicyclo[3.2.1]octan-3-yl)-6-(((2R,7aS)-2-fluorotetrahydro-1H-pyrrolizin-7a(5H)-yl)methoxy)-1,5-naphthyridin-3-yl)-2-fluoro-6-hydroxynaphthalen-1-yl)ethan-1-one]

- pIC50 [1]: 6.89
SMILES: C=C(F)C(=O)N1CCN(c2cc(OC[C@@H]3CCCN3C)nc3cc(-c4cccc5cccc(Cl)c45)cnc23)C[C@@H]1CC#N [Example 2, 2-((S)-4-(7-(8-Chloronaphthalen-1-yl)-2-(((S)-1-methylpyrrolidin-2-yl)methoxy)-1,5-naphthyridin-4-yl)-1-(2-fluoroacryloyl)piperazin-2-yl)acetonitrile]

- pIC50 [1]: 7.23
- pIC50 [3]: 6.48
SMILES: C=C(F)C(=O)N1CCN(c2cc(OCC34CCCN3CCC4)nc3cc(-c4cccc5cccc(Cl)c45)cnc23)C[C@@H]1CC#N [Example 6, (S)-2-(4-(7-(8-chloronaphthalen-1-yl)-2-((tetrahydro-1H-pyrrolizin-7a(5H)-yl)methoxy)-1,5-naphthyridin-4-yl)-1-(2-fluoroacryloyl)piperazin-2-yl)acetonitrile]

- pIC50 [1]: 7.42
- pIC50 [3]: 8.36
SMILES: C=CC(=O)N1CCN(c2cc(OC[C@@H]3CCCN3C)nc3cc(-c4cccc5cccc(Cl)c45)cnc23)C[C@@H]1CC#N [Example 1, 2-((S)-1-Acryloyl-4-(7-(8-chloronaphthalen-1-yl)-2-(((S)-1-methylpyrrolidin-2-yl)methoxy)-1,5-naphthyridin-4-yl)piperazin-2-yl)acetonitrile]

SMILES: CN[C@@H]1C[C@H]2O[C@@](C)([C@@H]1OC)n1c3ccccc3c3c4c(c5c6ccccc6n2c5c31)C(=O)NC4 [Staurosporine, staurosporine, reference compound]
- pIC50 [4]: 6.60

- pIC50 [5]: 6.00
SMILES: Oc1cc(-c2cnc3c(N4C[C@H]5CC[C@@H](C4)N5)cc(OCC45CCCN4CCC5)nc3c2)c2ccccc2c1 [Example 4, 4-(8-((1R,5S)-3,8-Diazabicyclo[3.2.1]octan-3-yl)-6-((tetrahydro-1H-pyrrolizin-7a(5H)-yl)methoxy)-1,5-naphthyridin-3-yl)naphthalen-2-ol]
